Measured values: patent US20250032623A1, “HETEROBIFUNCTIONAL COMPOUNDS AND THEIR USE IN TREATING DISEASE” (HALDA THERAPEUTICS OPCO, INC., priority 2021, published 2025)
Read-outs that look alike come from different tables or passages of the source.

Columns and labels:
[1] = target: T1, KRAS G12C (Homo sapiens, UniProt P01116, G12C); assay: KRAS G12C nucleotide exchange assay (SOS1 mediated, HTRF); type: biochemical; settings: 1 hr pre-incubation at RT, read-out: IC50 (inhibition of KRas G12C)
T1 construct: Kras (aa 2-169), GST; purchased Reaction Biology Corporation (RBC)
Experimental: Exemplary compounds were tested for ability to inhibit KRas G12C.
KRAS target engagement (IC50 determination) was performed using a KRAS G12C nucleotide exchange assay (Reaction Biology Corporation). Specifically, compounds were tested against KRAS G12C in 10-point concentration IC50 mode with 3-fold serial dilution at a starting concentration of 10 μM. ARS1620 was used as a control. Compounds were pre-incubated with protein for 1 hr at RT. Parameters for the assay were:
In the method, Kras was mixed with a-GST Tb antibody (1.5× solution) and […] was delivered to reaction wells. Compounds were delivered using acoustic dispenser (Echo, Labcyte). Kras/aGST-Tb Ab/compound mixture was incubated for 1 hour at room temperature. A 3× solution of SOS1 and GTP* was prepared in reaction buffer. A […] aliquot of SOS1/GTP* solution was added to reaction well to initiate the exchange reaction. No—SOS1 reaction or max compound concentration was used as blank. IC50 determination was performed using a Sigmoidal dose response (variable slope) equation.

[2] = target: T2, EGFR (Homo sapiens, UniProt P00533); assay: KdELECT binding assay, EGFR
T2 construct: purchased
Method in brief: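 Competition binding: DNA- or T7 phage-tagged EGFR was incubated 1 h at room temperature with immobilized ligand beads and an 11-point 3-fold compound series (0.9% DMSO final). Bead-bound kinase was eluted and quantified by qPCR to derive Kd.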

[3] = test system: HeLa cells; assay: Cellular growth inhibition assay (CellTiter-Glo), HeLa cells; type: cell-based; settings: three days compound treatment, CellTiter-Glo 2.0, read-out: CTG HELA GI50
Method in brief: (§1)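 GI50 derived by four-parameter regression of luminescence (CellTiter-Glo 2.0) at Day 0 and Day 3, normalized to DMSO wells. Cells (HeLa, HEK293; 500/well, DMEM plus 10% FBS) were dosed with compound dilutions 24 h post-seeding and exposed for three days at 37 °C.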

[4] = target: T3, EGFR WT (amino acids 669-1011, Accession Number NP_005219.2) (Homo sapiens, UniProt P00533); assay: KdELECT binding assay (Eurofins Discovery), EGFR WT
T3 construct: purchased Eurofins Discovery; host or cells: bacteria (E. coli, BL21-derived, T7 phage)
Method in brief: (§2)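 Competition binding: WT kinase as T7 phage fusion from E. coli, T790M/L858R produced in HEK-293 and DNA-tagged, incubated 1 h at room temperature with immobilized ligand beads and compound (11-point 3-fold series, 0.9% DMSO). Bead-bound kinase eluted and quantified by qPCR to derive Kd.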

[5] = target: T4, EGFR T790M, L858R (amino acids 669-1011 Accession Number NP_005219.2) (Homo sapiens, UniProt P00533, L858R/T790M); assay: KdELECT binding assay (Eurofins Discovery), EGFR T790M, L858R; settings: read-out: EGFR DM Kd
T4 construct: purchased Eurofins Discovery; host or cells: mammalian cells (HEK-293)
Method in brief: as §2

[6] = test system: HEK293 cells; assay: Cellular growth inhibition assay (CellTiter-Glo), HEK293 cells; type: cell-based; settings: three days compound treatment, CellTiter-Glo 2.0, read-out: CTG HEK293 GI50
Method in brief: as §1

T2 sequence (P00533 25-1210): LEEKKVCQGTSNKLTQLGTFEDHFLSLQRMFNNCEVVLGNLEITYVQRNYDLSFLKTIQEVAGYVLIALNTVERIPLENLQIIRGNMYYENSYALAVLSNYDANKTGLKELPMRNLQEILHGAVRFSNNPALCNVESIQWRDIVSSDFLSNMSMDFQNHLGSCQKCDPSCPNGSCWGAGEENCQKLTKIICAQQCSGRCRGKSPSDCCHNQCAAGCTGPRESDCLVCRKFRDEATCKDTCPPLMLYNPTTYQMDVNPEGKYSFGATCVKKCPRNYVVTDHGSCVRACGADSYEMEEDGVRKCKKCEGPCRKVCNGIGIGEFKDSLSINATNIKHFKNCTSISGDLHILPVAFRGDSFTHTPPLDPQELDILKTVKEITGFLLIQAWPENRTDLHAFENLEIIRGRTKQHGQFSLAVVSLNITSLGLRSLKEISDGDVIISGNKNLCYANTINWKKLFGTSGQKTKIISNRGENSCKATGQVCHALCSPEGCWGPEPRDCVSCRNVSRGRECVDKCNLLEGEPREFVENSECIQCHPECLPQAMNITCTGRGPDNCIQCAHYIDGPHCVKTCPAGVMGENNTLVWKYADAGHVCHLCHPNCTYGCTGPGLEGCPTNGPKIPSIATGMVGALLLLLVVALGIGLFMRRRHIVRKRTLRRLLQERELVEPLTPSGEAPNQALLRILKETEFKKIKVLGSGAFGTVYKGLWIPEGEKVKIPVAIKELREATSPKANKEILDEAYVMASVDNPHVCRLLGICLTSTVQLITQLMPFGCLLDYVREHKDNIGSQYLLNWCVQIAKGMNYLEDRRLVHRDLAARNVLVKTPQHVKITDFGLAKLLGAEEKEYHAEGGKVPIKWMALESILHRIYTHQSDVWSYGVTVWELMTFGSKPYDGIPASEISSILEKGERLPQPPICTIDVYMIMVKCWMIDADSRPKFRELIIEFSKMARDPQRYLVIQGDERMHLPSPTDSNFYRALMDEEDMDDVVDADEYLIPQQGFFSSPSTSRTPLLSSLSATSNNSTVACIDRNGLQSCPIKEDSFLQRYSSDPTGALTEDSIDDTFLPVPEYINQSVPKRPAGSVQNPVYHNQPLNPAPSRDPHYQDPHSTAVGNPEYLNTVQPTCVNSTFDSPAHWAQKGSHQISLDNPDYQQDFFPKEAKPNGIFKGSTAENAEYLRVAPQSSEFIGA
T1 sequence (P01116 2-169 isoform P01116-2 G12C): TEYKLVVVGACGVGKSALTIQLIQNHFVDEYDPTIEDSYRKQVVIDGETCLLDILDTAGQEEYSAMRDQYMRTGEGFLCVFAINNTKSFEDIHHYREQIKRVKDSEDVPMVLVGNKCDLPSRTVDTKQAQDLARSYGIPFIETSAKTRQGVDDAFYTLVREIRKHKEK
T4 sequence (P00533 669-1011 T790M/L858R): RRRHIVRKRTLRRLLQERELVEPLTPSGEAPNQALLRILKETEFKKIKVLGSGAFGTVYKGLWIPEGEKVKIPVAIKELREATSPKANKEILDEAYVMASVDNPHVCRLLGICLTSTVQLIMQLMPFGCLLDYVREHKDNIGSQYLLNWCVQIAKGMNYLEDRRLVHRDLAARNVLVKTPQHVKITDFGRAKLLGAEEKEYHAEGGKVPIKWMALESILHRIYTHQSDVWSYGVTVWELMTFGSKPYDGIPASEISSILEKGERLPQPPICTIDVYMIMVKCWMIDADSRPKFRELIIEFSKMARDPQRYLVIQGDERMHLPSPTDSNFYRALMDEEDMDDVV
T3 sequence (P00533 669-1011): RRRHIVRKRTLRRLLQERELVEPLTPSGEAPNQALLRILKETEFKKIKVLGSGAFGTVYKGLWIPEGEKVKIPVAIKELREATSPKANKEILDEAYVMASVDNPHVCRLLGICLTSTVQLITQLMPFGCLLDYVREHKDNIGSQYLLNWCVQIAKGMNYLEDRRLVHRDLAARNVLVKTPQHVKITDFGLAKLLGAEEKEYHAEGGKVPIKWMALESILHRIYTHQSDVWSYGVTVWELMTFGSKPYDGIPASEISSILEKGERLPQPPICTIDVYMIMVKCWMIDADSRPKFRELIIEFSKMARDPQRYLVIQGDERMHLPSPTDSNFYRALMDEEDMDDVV

## C=C(F)C(=O)N1CCN(c2nc(OCC3CCCN3CCOCCOCCOCCOCCOCCOCCOCCOCCNC(=O)c3cccc(-c4ccc5c(N6CCOCC6C)nc(N6CCOCC6C)nc5n4)c3)nc3c2CCN(c2cccc4cccc(Cl)c24)C3)CC1CC#N [Compound I-21, 3-[2,4-bis[(3R)-3-methylmorpholin-4-yl]pyrido[2,3-d]pyrimidin-7-yl]-N-[2-[2-[2-[2-[2-[2-[2-[2-[2-[(2S)-2-[[7-(8-chloro-1-naphthyl)-4-[(3S)-3-(cyanomethyl)-4-(2-fluoroprop-2-enoyl)piperazin-1-yl]-6,8-dihydro-SH-pyrido[3,4-d]pyrimidin-2-yl]oxymethyl]pyrrolidin-1-yl]ethoxy]ethoxy]ethoxy]ethoxy]ethoxy]ethoxy]ethoxy]ethoxy]ethyl]benzamide]
[1]
  IC50: 100 to 1000 nM

## C=C(F)C(=O)N1CCN(c2nc(OC[C@@H]3CCCN3CCOCCOCCNC(=O)c3ccc(Nc4ncc5c(n4)N(C4CCCC4)[C@H](CC)C(=O)N5C)c(OC)c3)nc3c2CCN(c2cccc4cccc(Cl)c24)C3)C[C@@H]1CC#N [Compound I-63, N-(2-(2-(2-((S)-2-(((7-(8-chloronaphthalen-1-yl)-4-((S)-3-(cyanomethyl)-4-(2-fluoroacryloyl)piperazin-1-yl)-5,6,7,8-tetrahydropyrido[3,4-d]pyrimidin-2-yl)oxy)methyl)pyrrolidin-1-yl)ethoxy)ethoxy)ethyl)-4-(((R)-8-cyclopentyl-7-ethyl-5-methyl-6-oxo-5,6,7,8-tetrahydropteridin-2-yl)amino)-3-methoxybenzamide]
[1]
  IC50: < 100 nM

## C=C(F)C(=O)N1CCN(c2nc(OC[C@@H]3CCCN3CCOCCOCCOCCOCCOCCOCCNC(=O)c3ccc(Nc4ncc5c(n4)N(C4CCCC4)[C@H](CC)C(=O)N5C)c(OC)c3)nc3c2CCN(c2cccc4cccc(Cl)c24)C3)C[C@@H]1CC#N [Compound I-65, N-[2-[2-[2-[2-[2-[2-[2-[(2S)-2-[[7-(8-chloro-1-naphthyl)-4-[(3S)-3-(cyanomethyl)-4-(2-fluoroprop-2-enoyl)piperazin-1-yl]-6,8-dihydro-5H-pyrido1[3,4-d]pyrimidin-2-yl]oxymethyl]pyrrolidin-1-yl]ethoxy]ethoxy]ethoxy]ethoxy]ethoxy]ethoxy]ethyl]-4-[1[(7R)-8-cyclopentyl-7-ethyl-5-methyl-6-oxo-7H-pteridin-2-yl]amino]-3-methoxy-benzamide]
[1]
  IC50: 100 to 1000 nM

## Cc1ccnc(C(C)C)c1-n1c(=O)nc(N2CCN(C(=O)/C=C/CN(C)CCOCCOCCOCCOCCOCCOCCON(C)C(=O)N3N=C(c4cc(F)ccc4F)SC3(CCCN)c3ccccc3)C[C@@H]2C)c2cc(F)c(-c3c(O)cccc3F)nc21 (stereo partly shown) [Compound I-77]
[1]
  IC50: 1000 to 5000 nM

## Cc1ccnc(C(C)C)c1-n1c(=O)nc(N2CCN(C(=O)/C=C/CN(C)CCOCCOCCOCCOCCOCCOCCOCCOCCON(C)C(=O)N3N=C(c4cc(F)ccc4F)SC3(CCCN)c3ccccc3)C[C@@H]2C)c2cc(F)c(-c3c(O)cccc3F)nc21 (stereo partly shown) [Compound I-79]
[1]
  IC50: 1000 to 5000 nM

## C=CC(=O)N[C@@H]1CN(c2nc(Nc3cn(CCCN4CCN(CCCON(C)C(=O)N5N=C(c6cc(F)ccc6F)S[C@@]5(CCCN)c5ccccc5)CC4)nc3OC)c3ncn(C)c3n2)C[C@H]1F [Compound I-137, (2S)-2-(3-aminopropyl)-5-(2,5-difluorophenyl) —N-[3-[4-[3-[4-[[2-[(3R,4R)-3-fluoro-4-(prop-2-enoylamino)pyrrolidin-1-yl]-9-methyl-purin-6-yl]amino]-3-methoxy-pyrazol-1-yl]propyl]piperazin-1-yl]propoxy]-N-methyl-2-phenyl-1,3,4-thiadiazole-3-carboxamide]
[2]
  Kd: < 50 nM
[3]; Homo sapiens, 72 h
  GI50: 1500 to 5000 nM
[4]
  Kd: < 50 nM
[5]
  Kd: < 50 nM
[6]; Homo sapiens, 72 h
  GI50: > 5000 nM

## C=CC(=O)N[C@@H]1CN(c2nc(Nc3cn(CCOc4ccc(CNc5cc(N6CCCC[C@H]6CCO)nc6c(CC)cnn56)cn4)nc3OC)c3ncn(C)c3n2)C[C@H]1F [Compound I-139, N-[(3R,4R)-1-[6-[[1-[2-[[5-1[[[3-ethyl-5-[(2S)-2-(2-hydroxyethyl)-1-piperidyl]pyrazolo[1,5-a]pyrimidin-7-yl]amino]methyl]-2-pyridyl]oxy]ethyl]-3-methoxy-pyrazol-4-yl]amino]-9-methyl-purin-2-yl]-4-fluoro-pyrrolidin-3-yl]prop-2-enamide]
[2]
  Kd: 50 to 500 nM
[3]; Homo sapiens, 72 h
  GI50: < 500 nM
[4]
  Kd: 50 to 500 nM
[5]
  Kd: < 50 nM
[6]; Homo sapiens, 72 h
  GI50: < 500 nM

## C=CC(=O)N[C@@H]1CN(c2nc(Nc3cn(CCOCCOCCOCCOCCOCCOCCOc4ccc(CNc5cc(N6CCCC[C@@H]6CCO)nc6c(CC)cnn56)cn4)nc3OC)c3ncn(C)c3n2)C[C@H]1F [Compound I-140, N—[(3R,4R)-1-[6-[[1-[2-[2-[2-[2-[2-[2-[2-[[5-111[[[3-ethyl-5-[(2R)-2-(2-hydroxyethyl)-1-piperidyl]pyrazolo[1,5-a]pyrimidin-7-yl]amino]methyl]-2-pyridyl]oxy]ethoxy]ethoxy]ethoxy]ethoxy]ethoxy]ethoxy]ethyl]-3-methoxy-pyrazol-4-yl]amino]-9-methyl-purin-2-yl]-4-fluoro-pyrrolidin-3-yl]prop-2-enamide]
[2]
  Kd: 50 to 500 nM
[3]
  GI50: < 500 nM
[4]
  Kd: 50 to 500 nM
[5]
  Kd: < 50 nM
[6]
  GI50: < 500 nM

## C=CC(=O)Nc1cc(Nc2nccc(-c3cn(C)c4ccccc34)n2)c(OC)cc1N(C)CCN(C)CCOCCOCCOc1ccc(CNc2cc(N3CCCC[C@H]3CCO)nc3c(CC)cnn23)cn1 [Compound I-141, N-[2-[2-[2-[2-[2-[[5-[[[3-ethyl-5-[(2S)-2-(2-hydroxyethyl)-1-piperidyl]pyrazolo[1,5-a]pyrimidin-7-yl]amino]methyl]-2-pyridyl]oxy]ethoxy]ethoxy]ethyl-methyl-amino]ethyl-methyl-amino]-4-methoxy-5-[[4-(1-methylindol-3-yl)pyrimidin-2-yl]amino]phenyl]prop-2-enamide]
[2]
  Kd: 50 to 500 nM
[3]; Homo sapiens, 72 h
  GI50: < 500 nM
[4]
  Kd: 50 to 500 nM
[5]
  Kd: < 50 nM
[6]; Homo sapiens, 72 h
  GI50: < 500 nM

## C=CC(=O)Nc1cc(Nc2nccc(-c3cn(C)c4ccccc34)n2)c(OC)cc1N(C)CCN(C)CCCN1CCN(CCCOc2ccc(CNc3cc(N4CCCC[C@H]4CCO)nc4c(CC)cnn34)cn2)CC1 [Compound I-149, N-[2-[2-[3-[4-[3-[[5-[[[3-ethyl-5-[(2S)-2-(2-hydroxyethyl)-1-piperidyl]pyrazolo[1,5-a]pyrimidin-7-yl]amino]methyl]-2-pyridyl]oxy]propyl]piperazin-1-yl]propyl-methyl-amino]ethyl-methyl-amino]-4-methoxy-5-[[4-(1-methylindol-3-yl)pyrimidin-2-yl]amino]phenyl]prop-2-enamide]
[2]
  Kd: 500 to 2500 nM
[3]; Homo sapiens, 72 h
  GI50: < 500 nM
[4]
  Kd: 500 to 2500 nM
[5]
  Kd: < 50 nM
[6]; Homo sapiens, 72 h
  GI50: < 500 nM

## C=CC(=O)N[C@@H]1CN(c2nc(Nc3cn(CCCCNS(=O)(=O)c4ccc(Nc5ncc(Br)c(Nc6cccc(F)c6C(N)=O)n5)cc4)nc3OC)c3ncn(C)c3n2)CC1F (stereo partly drawn) [Compound I-150, 2-[[5-bromo-2-[4-[4-[4-[[2-[(4R)-3-fluoro-4-(prop-2-enoylamino)pyrrolidin-1-yl]-9-methyl-purin-6-yl]amino]-3-methoxy-pyrazol-1-yl]butylsulfamoyl]anilino]pyrimidin-4-yl]amino]-6-fluoro-benzamide]
[2]
  Kd: < 50 nM
[3]; Homo sapiens, 72 h
  GI50: > 5000 nM
[4]
  Kd: < 50 nM
[5]
  Kd: < 50 nM
[6]; Homo sapiens, 72 h
  GI50: 500 to 1500 nM

## CC[C@@H]1C(=O)N(C)c2cnc(Nc3ccc(C(=O)NCCCN4CCN(CCCN(C)C/C=C/C(=O)N[C@@H]5CN(c6nc(Nc7cn(C)nc7OC)c7ncn(C)c7n6)C[C@H]5F)CC4)cc3OC)nc2N1C1CCCC1 [Compound I-152, 4-[[(7R)-8-cyclopentyl-7-ethyl-5-methyl-6-oxo-7H-pteridin-2-yl]amino]-N-[3-[4-[3-[[(E)-4-[[(3R,4R)-4-fluoro-1-1[6-1[(3-methoxy-1-methyl-pyrazol-4-yl)amino]-9-methyl-purin-2-yl]pyrrolidin-3-yl]amino]-4-oxo-but-2-enyl]-methyl-amino]propyl]piperazin-1-yl]propyl]-3-methoxy-benzamide]
[2]
  Kd: 500 to 2500 nM
[3]; Homo sapiens, 72 h
  GI50: < 500 nM
[4]
  Kd: 500 to 2500 nM
[5]
  Kd: < 50 nM
[6]; Homo sapiens, 72 h
  GI50: > 5000 nM
